Experimental data: ChEMBL document CHEMBL4382202, “1-(2-Hydroxybenzoyl)-thiosemicarbazides are promising antimicrobial agents targeting d-alanine-d-alanine ligase in bacterio” (Eur J Med Chem, 2018)
The source made the active and inactive calls. The rule behind the calls is not given here.

Columns and labels:
Staphylococcus aureus = assay: Bactericidal activity against Staphylococcus aureus ATCC 25923 assessed as reduction of bacterial load at 2 to 5 times MIC after 24 hrs by time kill assay; format: functional, organism-based
[1] = target: Muscarinic acetylcholine receptor M1 (Homo sapiens) (UniProt P11229); assay: Displacement of […] from human recombinant M1 receptor at 10 uM after 60 mins by scintillation counting analysis relative to control
Sequence of Muscarinic acetylcholine receptor M1 (Homo sapiens) (P11229 whole entry): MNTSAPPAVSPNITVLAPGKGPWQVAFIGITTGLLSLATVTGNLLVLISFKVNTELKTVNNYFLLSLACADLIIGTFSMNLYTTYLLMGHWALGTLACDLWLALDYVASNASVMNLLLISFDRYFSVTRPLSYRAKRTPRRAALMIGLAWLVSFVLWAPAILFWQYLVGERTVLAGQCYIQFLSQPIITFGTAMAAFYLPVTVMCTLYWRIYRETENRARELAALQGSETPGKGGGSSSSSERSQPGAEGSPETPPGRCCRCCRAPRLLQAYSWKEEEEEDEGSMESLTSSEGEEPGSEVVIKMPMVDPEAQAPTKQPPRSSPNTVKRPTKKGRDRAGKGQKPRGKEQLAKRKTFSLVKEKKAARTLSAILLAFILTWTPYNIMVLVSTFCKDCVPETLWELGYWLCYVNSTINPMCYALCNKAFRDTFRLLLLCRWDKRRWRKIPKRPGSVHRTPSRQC

Bacillus cereus = assay: Inhibition of Bacillus cereus beta-lactamase at 10 uM using nitrocefin as substrate preincubated for 15 mins followed by substrate addition and measured after 60 mins by spectrophotometric analysis relative to control
[2] = target: T1, D-alanine--D-alanine ligase (Enterococcus faecalis (strain ATCC 700802 / V583)) (UniProt Q47758); assay: Inhibition of Enterococcus faecalis JH2-2 C-terminal 6His-tagged DdlB expressed in Escherichia coli LMG194 assessed as Vmax/Km of ATP at 1 uM by Biomol Green reagent assay (reference value: 0.3 /min)
T1 sequence (whole entry): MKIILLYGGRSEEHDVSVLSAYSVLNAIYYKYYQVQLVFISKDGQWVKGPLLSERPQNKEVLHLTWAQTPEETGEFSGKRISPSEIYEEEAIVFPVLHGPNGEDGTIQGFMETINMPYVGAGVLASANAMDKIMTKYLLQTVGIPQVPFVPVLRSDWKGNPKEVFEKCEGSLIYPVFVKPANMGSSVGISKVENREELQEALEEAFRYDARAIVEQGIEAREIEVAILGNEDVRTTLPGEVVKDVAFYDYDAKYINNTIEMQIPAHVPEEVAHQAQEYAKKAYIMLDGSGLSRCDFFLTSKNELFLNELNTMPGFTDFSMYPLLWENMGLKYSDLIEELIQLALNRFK

[3] = target: Acetylcholinesterase (Homo sapiens) (UniProt P22303); assay: Inhibition of human recombinant acetylcholinesterase at 10 uM using acetylthiocholine as substrate after 30 mins by spectrophotometric analysis relative to control
Sequence of Acetylcholinesterase (Homo sapiens) (P22303 whole entry): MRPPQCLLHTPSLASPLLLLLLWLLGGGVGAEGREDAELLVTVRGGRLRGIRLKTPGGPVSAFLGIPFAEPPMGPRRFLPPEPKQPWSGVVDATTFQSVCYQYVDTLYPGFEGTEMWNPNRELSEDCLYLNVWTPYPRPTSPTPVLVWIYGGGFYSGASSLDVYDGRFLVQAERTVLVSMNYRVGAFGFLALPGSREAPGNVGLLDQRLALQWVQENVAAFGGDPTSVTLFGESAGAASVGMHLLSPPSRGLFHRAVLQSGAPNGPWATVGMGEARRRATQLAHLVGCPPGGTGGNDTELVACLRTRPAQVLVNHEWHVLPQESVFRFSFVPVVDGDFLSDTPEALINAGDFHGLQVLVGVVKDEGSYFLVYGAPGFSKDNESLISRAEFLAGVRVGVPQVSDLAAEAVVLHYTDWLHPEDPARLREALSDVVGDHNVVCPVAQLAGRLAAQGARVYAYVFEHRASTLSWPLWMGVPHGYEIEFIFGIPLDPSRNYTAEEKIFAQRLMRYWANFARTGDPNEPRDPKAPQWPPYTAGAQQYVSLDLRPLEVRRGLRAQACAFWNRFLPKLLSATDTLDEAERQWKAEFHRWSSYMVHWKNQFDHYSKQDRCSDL

[4] = target: Prothrombin (Homo sapiens) (UniProt P00734); assay: Inhibition of human thrombin at 10 uM using Z-GPR-AMC as substrate after 30 mins by fluorimetric analysis relative to control
[5] = target: Monoglyceride lipase (Homo sapiens) (UniProt Q99685); assay: Inhibition of human MAGL at 10 uM relative to control
Sequence of Monoglyceride lipase (Homo sapiens) (Q99685 whole entry): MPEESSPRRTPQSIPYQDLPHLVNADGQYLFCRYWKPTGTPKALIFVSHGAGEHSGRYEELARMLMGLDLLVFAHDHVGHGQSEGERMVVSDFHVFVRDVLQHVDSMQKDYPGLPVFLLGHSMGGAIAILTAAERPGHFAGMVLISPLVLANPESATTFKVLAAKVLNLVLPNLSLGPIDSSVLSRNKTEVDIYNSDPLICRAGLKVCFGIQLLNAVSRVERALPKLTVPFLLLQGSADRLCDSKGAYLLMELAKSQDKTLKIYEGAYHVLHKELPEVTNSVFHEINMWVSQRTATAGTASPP

Pseudomonas aeruginosa = assay: Antibacterial activity against Pseudomonas aeruginosa PAO1 after 18 to 24 hrs by microdilution assay; format: functional, organism-based
[6] = target: Cannabinoid receptor 1 (Homo sapiens) (UniProt P21554); assay: Displacement of [3H]CP 55940 from human recombinant CB1 receptor at 10 uM after 120 mins by scintillation counting analysis relative to control
Sequence of Cannabinoid receptor 1 (Homo sapiens) (P21554 whole entry): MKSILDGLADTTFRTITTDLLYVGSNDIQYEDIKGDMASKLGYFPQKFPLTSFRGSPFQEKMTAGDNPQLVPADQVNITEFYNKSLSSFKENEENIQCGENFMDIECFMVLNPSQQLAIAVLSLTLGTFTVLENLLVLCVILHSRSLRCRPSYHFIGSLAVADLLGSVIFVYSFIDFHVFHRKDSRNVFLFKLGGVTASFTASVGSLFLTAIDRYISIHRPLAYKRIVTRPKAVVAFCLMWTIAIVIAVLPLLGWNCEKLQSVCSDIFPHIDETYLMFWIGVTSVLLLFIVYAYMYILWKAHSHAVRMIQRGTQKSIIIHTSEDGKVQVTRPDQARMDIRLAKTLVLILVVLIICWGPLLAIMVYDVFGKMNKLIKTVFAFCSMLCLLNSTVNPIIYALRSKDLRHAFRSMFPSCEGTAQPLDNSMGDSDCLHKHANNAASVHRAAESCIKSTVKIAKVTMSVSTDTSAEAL

[7] = target: GABA-A receptor; alpha-1/beta-2/gamma-2 (Homo sapiens) (UniProt P14867+P47870+P18507); assay: Displacement of [3H]muscimol from recombinant human GABAalpha1beta2gamma2 at 10 uM after 120 mins by scintillation counting method relative to control; format: protein-complex assay

Question: Which Activity (Staphylococcus aureus) does the source give for `O=C(NNC(=S)Nc1ccc(Cl)c(Cl)c1)c1ccccc1O` here?
Answer: The Activity was “Active”.

Question: What about the inhibition [1] of the same compound?
Answer: Its inhibition is under 30%.

Question: And the inhibition (Bacillus cereus)?
Answer: Its inhibition is under 30%.

Question: And the Vmax/Km [2]?
Answer: The Vmax/Km was 0.33 min⁻¹.

Question: And the inhibition [3]?
Answer: Its inhibition is under 30%.

Question: What about the inhibition [4] of the same compound?
Answer: The inhibition was under 30%.

Question: What about the inhibition [5] of the same compound?
Answer: Its inhibition is under 30%.

Question: What about the MIC (Pseudomonas aeruginosa) of the same compound?
Answer: The MIC was “inactive”.

Question: What about the inhibition [6] of the same compound?
Answer: The inhibition was under 30%.

Question: And the inhibition [7]?
Answer: Its inhibition is under 30%.
